Assays:
[1] = test system: Trypanosoma brucei Lister 427 VSG221 with APOL1 G2 recombinant protein; experiment: APOL1 G2 trypanosome cell rescue assay (Example B5); type: cell-based; details: Trypanosoma brucei, 20 h, read-out: APOL1 G2 Trypanosome Rescue EC50, Trypanosoma brucei Lister 427 VSG221 with APOL1 G2 recombinant protein, 20 hours, CellTiter-Glo; geometric mean of at least 2 assay runs; † = single assay run
Procedure, shortened: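 Mature APOL1 (residues 28-398, E. coli-expressed, His-tag removed by TEV) was added as a 2 μg/mL solution to T. brucei Lister 427 VSG221 in modified HMI-9 medium at 250 cells/well, with duplicate 11-point 2-fold compound dilutions (0.4% DMSO). After 20 h at 37° C, 5% CO2, viability was read by CellTiter-Glo luminescence.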

[2] = test system: HEK293 cells overexpressing APOL1 G2; experiment: APOL1 G2 HEK293 cell rescue assay (reversal of cell death caused by overexpression of APOL1); type: cell-based; details: Homo sapiens, HEK293, HEK293 overexpressing APOL1 G2; geometric mean of at least 2 assay runs; † = single assay run
Procedure, shortened: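 EC50 is the half-maximal effective concentration for reversing cell death driven by APOL1 G2 overexpression in HEK293 cells. Reported as geometric mean of at least 2 runs on separate days, each run averaging duplicate wells per plate; some values from a single run.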

Row | Structure (SMILES) | EC50 [1] [nM] | EC50 [2] [nM]
1 | O=C1CCc2cc(OCCN3CCC4(CC3)C(=O)Nc3ccc(Cl)cc34)ccc2N1C1COC1 [Compound 99, 5-chloro-1′-(2-{[1-(oxetan-3-yl)-2-oxo-1,2,3,4-tetrahydroquinolin-6-yl]oxy}ethyl)-1,2-dihydrospiro[indole-3,4′-piperidin]-2-one] | 90.1 | 86.5
2 | CS(=O)(=O)c1ccc(OCCN2CCC3(CC2)C(=O)Nc2ccc(C#N)cc23)cc1C(F)F [Compound 100, 1′-{2-[3-(difluoromethyl)-4-methanesulfonylphenoxy]ethyl}-2-oxo-1,2-dihydrospiro[indole-3,4′-piperidine]-5-carbonitrile] | 25.9 | 46.5
3 | CS(=O)(=O)C1(c2ccc(OCCN3CCC4(CC3)C(=O)Nc3ccc(C#N)cc34)cc2)CC1 [Compound 101, 1′-{2-[4-(1-methanesulfonylcyclopropyl)phenoxy]ethyl}-2-oxo-1,2-dihydrospiro[indole-3,4′-piperidine]-5-carbonitrile] | 69.4 | 49.6
4 | CS(=O)(=O)C1(c2ccc(OCCN3CCC4(CC3)C(=O)Nc3ccc(Cl)cc34)cc2)CC1 [Compound 102, 5-chloro-1′-{2-[4-(1-methanesulfonylcyclopropyl)phenoxy]ethyl}-1,2-dihydrospiro[indole-3,4′-piperidin]-2-one] | 18 | 31.4
5 | CN1c2ccc(OCCN3CCC4(CC3)C(=O)Nc3ccc(Cl)cc34)cc2CCS1(=O)=O [Compound 103, 6-(2-{5-chloro-2-oxo-1,2-dihydrospiro[indole-3,4′-piperidin]-1′-yl}ethoxy)-1-methyl-3,4-dihydro-1H-2λ^6,1-benzothiazine-2,2-dione] | 43.7 | 49.4
6 | CN1c2ccc(OCCN3CCC4(CC3)C(=O)Nc3ccc(C#N)cc34)cc2CCS1(=O)=O [Compound 104, 1′-{2-[(1-methyl-2,2-dioxo-3,4-dihydro-1H-2λ^6,1-benzothiazin-6-yl)oxy]ethyl}-2-oxo-1,2-dihydrospiro[indole-3,4′-piperidine]-5-carbonitrile] | 184 | 139
7 | N#Cc1ccc2c(c1)C1(CCN(CCOc3ccc4c(c3)CCC(=O)N4CC(F)F)CC1)C(=O)N2 [Compound 105, 1′-(2-{[1-(2,2-difluoroethyl)-2-oxo-1,2,3,4-tetrahydroquinolin-6-yl]oxy}ethyl)-2-oxo-1,2-dihydrospiro[indole-3,4′-piperidine]-5-carbonitrile] | 75.2 | 40.7
8 | O=C1CCc2cc(OCCN3CCC4(CC3)C(=O)Nc3ccc(Cl)cc34)ccc2N1CC(F)F [Compound 106, 5-chloro-1′-(2-{[1-(2,2-difluoroethyl)-2-oxo-1,2,3,4-tetrahydroquinolin-6-yl]oxy}ethyl)-1,2-dihydrospiro[indole-3,4′-piperidin]-2-one] | 23.4 | 33.5
9 | CS(=O)(=O)c1ccc(OCCN2CCC3(CC2)C(=O)Nc2ccc(C#N)cc23)cc1C(F)(F)F [Compound 107, 1′-{2-[4-methanesulfonyl-3-(trifluoromethyl)phenoxy]ethyl}-2-oxo-1,2-dihydrospiro[indole-3,4′-piperidine]-5-carbonitrile] | 23 | 30.8
10 | CS(=O)(=O)c1ccc(OCCN2CCC3(CC2)C(=O)Nc2ccc(Cl)cc23)cc1C(F)(F)F [Compound 108, 5-chloro-1′-{2-[4-methanesulfonyl-3-(trifluoromethyl)phenoxy]ethyl}-1,2-dihydrospiro[indole-3,4′-piperidin]-2-one] | 9.22 | 16.9
11 | CS(=O)(=O)C1(c2ccc(OCCN3CCC4(CC3)C(=O)Nc3ccc(C#N)cc34)cc2)COC1 [Compound 109, 1′-{2-[4-(3-methanesulfonyloxetan-3-yl)phenoxy]ethyl}-2-oxo-1,2-dihydrospiro[indole-3,4′-piperidine]-5-carbonitrile] | 98 | 96.9
12 | Cc1cc(OCCN2CCC3(CC2)C(=O)Nc2ccc(Cl)cc23)ccc1S(C)(=O)=O [Compound 110, 5-chloro-1′-[2-(4-methanesulfonyl-3-methylphenoxy)ethyl]-1,2-dihydrospiro[indole-3,4′-piperidin]-2-one] | 26.1 | 41.3
13 | Cc1cc(OCCN2CCC3(CC2)C(=O)Nc2ccc(C#N)cc23)ccc1S(C)(=O)=O [Compound 111, 1′-[2-(4-methanesulfonyl-3-methylphenoxy)ethyl]-2-oxo-1,2-dihydrospiro[indole-3,4′-piperidine]-5-carbonitrile] | 105 | 142
14 | O=C1Nc2ccc(Cl)cc2C12CCN(CCOc1ccc(S(=O)(=O)C(F)F)cc1)CC2 [Compound 112, 5-chloro-1′-[2-(4-difluoromethanesulfonylphenoxy)ethyl]-1,2-dihydrospiro[indole-3,4′-piperidin]-2-one] | 18.3 | 47.2
15 | N#Cc1ccc2c(c1)C1(CCN(CCOc3ccc(S(=O)(=O)C(F)F)cc3)CC1)C(=O)N2 [Compound 113, 1′-[2-(4-difluoromethanesulfonylphenoxy)ethyl]-2-oxo-1,2-dihydrospiro[indole-3,4′-piperidine]-5-carbonitrile] | 46.7 | 83.6
16 | O=C1CCc2cc(OCCN3CCC4(CC3)C(=O)Nc3ccc(Cl)cc34)ccc2N1[C@H]1C[C@@H](O)C1 [Compound 114, 5-chloro-1′-[2-({2-oxo-1-[(cis)-3-hydroxycyclobutyl]-1,2,3,4-tetrahydroquinolin-6-yl}oxy)ethyl]-1,2-dihydrospiro[indole-3,4′-piperidin]-2-one] | 38 | 46.5
17 | CN(c1c(F)cc(OCCN2CCC3(CC2)C(=O)Nc2ccc(Cl)cc23)cc1F)S(C)(=O)=O [Compound 127, N-[4-(2-{5-chloro-2-oxo-1,2-dihydrospiro[indole-3,4′-piperidin]-1′-yl}ethoxy)-2,6-difluorophenyl]-N-methylmethanesulfonamide] | 29.4 | 20.8
18 | CN(c1c(F)cc(OCCN2CCC3(CC2)C(=O)Nc2ccc(C#N)cc23)cc1F)S(C)(=O)=O [Compound 128, N-[4-(2-{5-cyano-2-oxo-1,2-dihydrospiro[indole-3,4′-piperidin]-1′-yl}ethoxy)-2,6-difluorophenyl]-N-methylmethanesulfonamide] | 133 | 42.7
19 | Cc1cc(OCCN2CCC3(CC2)C(=O)Nc2ccc(Cl)cc23)cc(C)c1S(C)(=O)=O [Compound 129, 5-chloro-1′-[2-(4-methanesulfonyl-3,5-dimethylphenoxy)ethyl]-1,2-dihydrospiro[indole-3,4′-piperidin]-2-one] | 22.2 | 24.6
20 | Cn1c(=O)oc2cc(OCCN3CCC4(CC3)C(=O)Nc3ccc(Cl)cc34)ccc21 [Compound 131, 5-chloro-1′-{2-[(3-methyl-2-oxo-2,3-dihydro-1,3-benzoxazol-6-yl)oxy]ethyl}-1,2-dihydrospiro[indole-3,4′-piperidin]-2-one] | 47.8 | 68
21 | Cn1c(=O)oc2cc(OCCN3CCC4(CC3)C(=O)Nc3ccc(C#N)cc34)ccc21 [Compound 132, 1′-{2-[(3-methyl-2-oxo-2,3-dihydro-1,3-benzoxazol-6-yl)oxy]ethyl}-2-oxo-1,2-dihydrospiro[indole-3,4′-piperidine]-5-carbonitrile] | 180 | 153
22 | CS(=O)(=O)C1(c2c(F)cc(OCCN3CCC4(CC3)C(=O)Nc3ccc(Cl)cc34)cc2F)COC1 [Compound 136, 5-chloro-1′-{2-[3,5-difluoro-4-(3-methanesulfonyloxetan-3-yl)phenoxy]ethyl}-1,2-dihydrospiro[indole-3,4′-piperidin]-2-one] | 14.3 | 22.4
23 | CC(c1c(F)cc(OCCN2CCC3(CC2)C(=O)Nc2ccc(C#N)cc23)cc1F)S(C)(=O)=O (stereo not drawn) [Compound 137, 1′-{2-[3,5-difluoro-4-(1-methanesulfonylethyl)phenoxy]ethyl}-2-oxo-1,2-dihydrospiro[indole-3,4′-piperidine]-5-carbonitrile] | 119 | 114
24 | Cc1cc(OCCN2CCC3(CC2)C(=O)Nc2ccc(C#N)cc23)cnc1S(C)(=O)=O [Compound 140, 1′-{2-[(6-methanesulfonyl-5-methylpyridin-3-yl)oxy]ethyl}-2-oxo-1,2-dihydrospiro[indole-3,4′-piperidine]-5-carbonitrile] | 164 | 172
25 | CC(C)N1C(=O)Cc2cc(OCCN3CCC4(CC3)C(=O)Nc3ccc(C#N)cc34)ccc21 [Compound 144, 2-oxo-1′-(2-{[2-oxo-1-(propan-2-yl)-2,3-dihydro-1H-indol-5-yl]oxy}ethyl)-1,2-dihydrospiro[indole-3,4′-piperidine]-5-carbonitrile] | 101 | 81
26 | CC(C)N1C(=O)Cc2cc(OCCN3CCC4(CC3)C(=O)Nc3ccc(Cl)cc34)ccc21 [Compound 145, 5-chloro-1′-(2-{[2-oxo-1-(propan-2-yl)-2,3-dihydro-1H-indol-5-yl]oxy}ethyl)-1,2-dihydrospiro[indole-3,4′-piperidin]-2-one] | 35.5 | 50.4
27 | CN1Cc2cc(OCCN3CCC4(CC3)C(=O)Nc3ccc(Cl)cc34)ccc2C1=O [Compound 146, 5-chloro-1′-{2-[(2-methyl-1-oxo-2,3-dihydro-1H-isoindol-5-yl)oxy]ethyl}-1,2-dihydrospiro[indole-3,4′-piperidin]-2-one] | 119 | 121
